In ChEMBL document CHEMBL1147420, “Synthesis and biological evaluation of novel coumarin derivatives with a 7-azomethine linkage” (2004):

How the values were obtained:
Format in all cases: functional
[1] = Interaction percent with DPPH after 60 minutes was determined at 0.5 mM concentration
[2] = target: Chymotrypsinogen B (Homo sapiens) (UniProt P17538); assay: Compound was evaluated for in vitro inhibition of chymotrypsinogen induced proteolysis at 1 mM concentration
[3] = target: Chymotrypsinogen B (Homo sapiens) (UniProt P17538); assay: Compound was evaluated for in vitro inhibition of chymotrypsinogen induced proteolysis at 0.1 mM concentration
[4] = target: T1, Seed linoleate 13S-lipoxygenase-1 (Glycine max) (UniProt P08170); assay: Compound was evaluated for in vitro inhibition of soybean lipoxygenase at 1 mM concentration; no action
T1 sequence (whole entry): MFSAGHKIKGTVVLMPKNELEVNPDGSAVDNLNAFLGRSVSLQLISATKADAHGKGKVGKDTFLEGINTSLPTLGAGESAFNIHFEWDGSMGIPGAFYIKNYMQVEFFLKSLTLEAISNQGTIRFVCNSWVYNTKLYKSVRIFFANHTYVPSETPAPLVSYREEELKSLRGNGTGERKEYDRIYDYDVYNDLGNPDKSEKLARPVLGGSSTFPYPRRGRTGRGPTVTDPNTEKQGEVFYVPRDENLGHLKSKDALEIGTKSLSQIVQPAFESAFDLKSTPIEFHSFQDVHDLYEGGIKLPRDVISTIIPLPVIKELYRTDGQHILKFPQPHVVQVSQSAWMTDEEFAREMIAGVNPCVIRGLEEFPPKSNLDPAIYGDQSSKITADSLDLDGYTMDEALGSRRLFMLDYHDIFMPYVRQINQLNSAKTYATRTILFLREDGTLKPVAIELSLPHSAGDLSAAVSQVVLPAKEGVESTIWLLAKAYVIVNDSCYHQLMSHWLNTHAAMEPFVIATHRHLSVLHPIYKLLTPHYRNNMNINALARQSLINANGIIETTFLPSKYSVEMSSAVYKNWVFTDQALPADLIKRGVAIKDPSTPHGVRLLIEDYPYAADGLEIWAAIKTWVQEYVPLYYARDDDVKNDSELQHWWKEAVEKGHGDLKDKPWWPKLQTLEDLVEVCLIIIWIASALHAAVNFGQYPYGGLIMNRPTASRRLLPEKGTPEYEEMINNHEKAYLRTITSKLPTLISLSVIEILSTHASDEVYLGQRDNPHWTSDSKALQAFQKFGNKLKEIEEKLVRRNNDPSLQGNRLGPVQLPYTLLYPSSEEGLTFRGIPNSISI

[5] = Interaction percent with DPPH after 60 minutes was determined at 0.1 mM concentration
[6] = Competition percent of compound with DMSO for hydroxyl radical was determined at 0.1 mM concentration
[7] = target: Serine protease 1 (Homo sapiens) (UniProt P07477); assay: Compound was evaluated for in vitro inhibition of trypsin induced proteolysis at 1 mM concentration
[8] = Interaction percent with DPPH after 20 minutes was determined at 0.5 mM concentration
[9] = target: Chymotrypsinogen B (Homo sapiens) (UniProt P17538); assay: Compound was evaluated for in vitro inhibition of chymotrypsinogen acting as esterase at 1 mM concentration
[10] = Interaction percent with DPPH after 20 minutes was determined at 0.1 mM concentration
[11] = target: Serine protease 1 (Homo sapiens) (UniProt P07477); assay: Compound was evaluated for in vitro inhibition of trypsin acting as esterase at 1 mM concentration
[12] = target: Serine protease 1 (Homo sapiens) (UniProt P07477); assay: Compound was evaluated for in vitro inhibition of trypsin acting as esterase at 0.1 mM concentration
[13] = target: Chymotrypsinogen B (Homo sapiens) (UniProt P17538); assay: Compound was evaluated for in vitro inhibition of chymotrypsinogen acting as esterase at 0.1 mM concentration
[14] = Compound was evaluated for percent inhibition of carrageenan induced rat paw edema at 0.005 mmol/kg
[15] = target: Serine protease 1 (Homo sapiens) (UniProt P07477); assay: Compound was evaluated for in vitro inhibition of trypsin induced proteolysis at 0.1 mM concentration

Sequence of Serine protease 1 (Homo sapiens) (P07477 whole entry): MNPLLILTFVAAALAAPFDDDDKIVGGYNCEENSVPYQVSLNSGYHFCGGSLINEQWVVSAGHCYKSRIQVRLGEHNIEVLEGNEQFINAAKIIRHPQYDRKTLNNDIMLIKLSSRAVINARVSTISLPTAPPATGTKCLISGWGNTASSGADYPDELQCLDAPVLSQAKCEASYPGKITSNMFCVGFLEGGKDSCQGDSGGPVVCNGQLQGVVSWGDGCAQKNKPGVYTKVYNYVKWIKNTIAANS
Sequence of Chymotrypsinogen B (Homo sapiens) (P17538 34-164 limits assumed, other chains not shown): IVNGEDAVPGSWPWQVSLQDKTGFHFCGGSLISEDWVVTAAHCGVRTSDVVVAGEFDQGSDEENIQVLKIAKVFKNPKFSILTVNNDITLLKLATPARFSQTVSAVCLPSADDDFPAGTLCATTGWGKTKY
Sequence of Chymotrypsinogen B (Homo sapiens) (P17538 167-263 limits assumed, other chains not shown): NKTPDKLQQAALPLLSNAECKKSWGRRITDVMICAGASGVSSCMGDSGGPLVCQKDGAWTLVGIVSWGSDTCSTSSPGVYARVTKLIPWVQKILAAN

## CC(=O)CC(c1ccccc1)c1c(O)c2ccccc2oc1=O (stereo not given) [WARFARIN]
[1]
  RA: 12.8%
[2]
  inhibition: 86.7%
[3]
  inhibition: 62.4%
[4]
  inhibition: No action
[5]
  RA: 24%
[6]
  Competition: 95.8%
[7]
  inhibition: 94.8%
[8]
  RA: 10.3%
[9]
  inhibition: 98.2%
[10]
  RA: 9.2%
[11]
  inhibition: 97.5%
[12]
  inhibition: 21.2%
[13]
  inhibition: 18.4%
[14]
  inhibition in vivo at 5 µmol/kg: 41%
[15]
  inhibition: 92.5%
